In patent US11654413B2, “System and method for enhancing effectiveness of products generated from ionization, oxidation, photooxidation, photocatalytic, and photochemical reactions” (BIS SCIENCE LLC., priority 2021, dated 2023):
Read-outs that look alike come from different tables or passages of the source.

Columns and labels:
[1] = test system: Staphylococcus aureus ATCC 6538; details: contact time 5 minutes
Excerpt: The test substance was hydrogen peroxide at 1 ppm and at 0.3%, which was exposed or not exposed to photons with a wavelength from 0.001 nm-845 nm and applied to target, which included a biological medium inoculated with a viable bacteria concentration of Staphylococcus aureus ATCC 6538. Further, it may be appreciated that the control is the same microorganism.

E. coli = assay: FIG. 2 microbial reduction by photon enhanced solution; type: cell-based
microbial counts = details: 1 part per million, 5 minute contact time
Excerpt: In an example embodiment of a system for progressive reduction of the microbial count in ambient air, a room with 1,000,000 colony forming units (CFUs) is equipped with a system for performing the methods as disclosed herein. A small micron photon/phonon enhanced antimicrobial dry fog of an enhanced oxidizing agent is continuously administered into the ambient air through an existing HVAC system at a concentration of less than 1 part per million.

SMILES | Average CFU/ML [1] | CFU/ML ([1]; Replicate 1) | CFU/ML ([1]; Replicate 2) | microbial (E. coli) reduction (E. coli) | microbial reduction (microbial counts)
OO [1 ppm H2O2 no photon activation, hydrogen peroxide] | 4.05E+06 CFU/ML | 4.10E+06 CFU/ML | 4.10E+06 CFU/ML |  | 
OO [hydrogen peroxide] |  |  |  | 0.0% | 
OO [.3% H2O2 no photon activation, hydrogen peroxide] | 4.05E+06 CFU/ML | 4.10E+06 CFU/ML | 4.00E+06 CFU/ML |  | 
OO [standard hydrogen peroxide, hydrogen peroxide] |  |  |  |  | little or no microbial reduction
